Laboratory results taken from US9732075B2, “Benzimidazole-proline derivatives” (IDORSIA PHARMACEUTICALS LTD, priority 2012, dated 2017).

How the values were obtained:
human orexin-2 receptor = human orexin-2 receptor (Homo sapiens (Human), UniProt O43614); test: In vitro assay: intracellular calcium measurements (FLIPR), antagonistic activity; type: cell-based; details: CHO cells expressing human orexin-2 receptor, orexin-A agonist, geometric mean, read-out: IC50 Ox2
Summary of the method: (§1)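 Dye-loaded CHO cells expressing either human orexin receptor are exposed to test antagonist for 120 min, then stimulated with orexin-A at 3 nM.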

human orexin-1 receptor = human orexin-1 receptor (Homo sapiens (Human), UniProt O43613); test: as above; type: cell-based; details: CHO cells expressing human orexin-1 receptor, orexin-A agonist, geometric mean, read-out: IC50 Ox1
Sequence of human orexin-1 receptor (O43613 whole entry): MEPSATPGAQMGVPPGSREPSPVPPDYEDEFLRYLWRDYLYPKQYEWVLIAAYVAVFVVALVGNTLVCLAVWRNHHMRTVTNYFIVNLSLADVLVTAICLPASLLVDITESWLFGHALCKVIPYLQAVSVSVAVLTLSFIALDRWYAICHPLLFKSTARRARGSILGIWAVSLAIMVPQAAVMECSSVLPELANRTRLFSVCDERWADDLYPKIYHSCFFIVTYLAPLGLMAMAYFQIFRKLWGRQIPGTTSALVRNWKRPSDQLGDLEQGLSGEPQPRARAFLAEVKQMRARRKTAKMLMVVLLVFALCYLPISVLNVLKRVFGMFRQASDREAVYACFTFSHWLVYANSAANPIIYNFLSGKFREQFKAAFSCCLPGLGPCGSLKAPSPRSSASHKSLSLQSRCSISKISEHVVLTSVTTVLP
Summary of the method: as §1

Sequence of human orexin-2 receptor (O43614 whole entry): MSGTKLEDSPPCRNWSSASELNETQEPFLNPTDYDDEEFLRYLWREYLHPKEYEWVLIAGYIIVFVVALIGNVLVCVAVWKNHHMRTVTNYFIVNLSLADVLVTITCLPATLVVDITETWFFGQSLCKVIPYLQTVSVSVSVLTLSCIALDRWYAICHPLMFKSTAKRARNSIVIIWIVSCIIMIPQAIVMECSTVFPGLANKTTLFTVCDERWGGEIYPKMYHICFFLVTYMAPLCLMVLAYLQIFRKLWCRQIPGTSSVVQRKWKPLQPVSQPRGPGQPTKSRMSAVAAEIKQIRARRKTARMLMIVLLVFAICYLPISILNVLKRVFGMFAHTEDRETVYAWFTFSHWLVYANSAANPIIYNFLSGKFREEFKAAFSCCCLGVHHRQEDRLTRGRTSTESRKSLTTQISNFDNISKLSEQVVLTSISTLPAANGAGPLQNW

Row | Compound | IC50 (human orexin-2 receptor) | IC50 (human orexin-1 receptor)
1 | COc1ccc2nc([C@@H]3CCCN3C(=O)c3cc(C#N)ccc3-n3nccn3)[nH]c2c1 [Ex. 1.159] | 0.023 µM | 0.903 µM
2 | Cc1nc(C(=O)N2CC[C@H](C)[C@H]2c2nc3c(Cl)cccc3[nH]2)c(-c2cc(F)cc(F)c2)s1 [Ex. 4.119] | 2.05 µM | 0.021 µM
3 | Cc1nc(C(=O)N2CCCC2c2nc3cc(C(C)(C)C)ccc3[nH]2)c(-c2ccccc2)s1 (stereo not shown) [Ex. 1.124] | 0.042 µM | 0.119 µM
4 | CSc1cccc2nc([C@@H]3CCCN3C(=O)c3ccccc3-c3ccc(C)c(C)c3)[nH]c12 [Ex. 1.75] | 0.009 µM | 0.005 µM
5 | Cc1cc2[nH]c([C@@H]3[C@@H](C)CCN3C(=O)c3c(-c4ccccc4)ccc(C)c3F)nc2cc1Cl [Ex. 4.115] | 0.754 µM | 0.007 µM
6 | Cc1cc2[nH]c([C@@H]3[C@@H](C)CCN3C(=O)c3cc(F)ccc3-c3ccccn3)nc2cc1Cl [Ex. 4.106] | 0.529 µM | 0.023 µM
7 | COc1cc2nc(C3CCCN3C(=O)c3nc(C)sc3-c3ccccc3)[nH]c2cc1OC (stereo not shown) [Ex. 1.134] | 0.026 µM | 0.116 µM
8 | Cc1nc(C(=O)N2CC[C@H](C)[C@H]2c2nc3cc(Cl)ccc3[nH]2)c(-c2cccc(Cl)c2)s1 [Ex. 4.11] | 4.06 µM | 0.01 µM
9 | Cc1nc(C(=O)N2CCC[C@H]2c2nc3c(C)c(Cl)ccc3[nH]2)c(-c2ccccc2)s1 [Ex. 1.145] | 0.007 µM | 0.003 µM
10 | COc1cc2nc([C@@H]3[C@@H](C)CCN3C(=O)c3cc(Cl)ccc3-n3nccn3)[nH]c2cc1OC [Ex. 4.40] | 0.028 µM | 0.021 µM
11 | CSc1ccc2nc([C@@H]3CCCN3C(=O)c3nc(C)sc3-c3cccc(Cl)c3Cl)[nH]c2c1 [Ex. 1.36] | 0.027 µM | 0.109 µM
12 | COc1ccc(-n2nccn2)c(C(=O)N2CC[C@H](C)[C@H]2c2nc3c(C)c(Cl)ccc3[nH]2)c1 [Ex. 4.66] | 0.023 µM | 0.001 µM
13 | Cc1ccc(C(=O)N2CCC[C@@]2(C)c2nc3c(C)c(Cl)ccc3[nH]2)c(-n2nccn2)c1 [Ex. 5.38] | 0.012 µM | 0.004 µM
14 | COc1ccc2nc([C@@H]3CCCN3C(=O)c3cnc(C)nc3-c3ccc(Br)c(Cl)c3)[nH]c2c1 [Ex. 1.33] | 0.048 µM | 0.076 µM
15 | COc1ccc(-n2nccn2)c(C(=O)N2CCC[C@@]2(C)c2nc3c(C)c(Cl)ccc3[nH]2)c1F [Ex. 5.37] | 0.016 µM | 0.01 µM
16 | COc1ccc2nc([C@@H]3CCCN3C(=O)c3cc(Cl)ccc3-n3nccn3)[nH]c2c1 [Ex. 1.157] | 0.01 µM | 0.419 µM
17 | Cc1ccc2[nH]c([C@@H]3[C@@H](C)CCN3C(=O)c3nc(C)sc3-c3cccc(Cl)c3)nc2c1 [Ex. 4.3] | 1.35 µM | 0.008 µM
18 | Cc1ccc(-n2nccn2)c(C(=O)N2CC[C@H](C)[C@H]2c2nc3c(C)c(Cl)ccc3[nH]2)c1 [Ex. 4.35] | 0.193 µM | 0.003 µM
19 | COc1cc2nc([C@@H]3[C@@H](C)CCN3C(=O)c3c(F)cccc3-n3nccn3)[nH]c2cc1OC [Ex. 4.42] | 1.13 µM | 0.365 µM
20 | CSc1ccc2nc([C@@H]3CCCN3C(=O)c3ccccc3-c3ccc(C)c(C)c3)[nH]c2c1 [Ex. 1.46] | 0.013 µM | 0.128 µM

Other lines, results leading:

Row | IC50 (human orexin-2 receptor) | IC50 (human orexin-1 receptor) | Compound
21 | 0.232 µM | 0.038 µM | Cc1ccc(C(=O)N2CCC[C@@]2(C)c2nc3cc(OC(F)(F)F)ccc3[nH]2)c(-c2ccccn2)c1 [Ex. 5.240]
22 | 0.051 µM | 0.024 µM | Cc1ccc(-c2ccc(F)cc2)c(C(=O)N2CCC[C@@]2(C)c2nc3cc(C(F)(F)F)c(Cl)cc3[nH]2)c1 [Ex. 5.152]
23 | 0.029 µM | 0.025 µM | Cc1ccc(-n2nccn2)c(C(=O)N2CCC[C@@]2(C)c2nc3c4c(ccc3[nH]2)OCCO4)c1 [Ex. 5.33]
24 | 0.035 µM | 0.006 µM | C[C@@]1(c2nc3cc(C(F)(F)F)c(Cl)cc3[nH]2)CCCN1C(=O)c1cc(F)ccc1-n1nccn1 [Ex. 5.136]
25 | 0.016 µM | 0.006 µM | Cc1ccc(-n2nccn2)c(C(=O)N2CCC[C@@]2(C)c2nc3cc(C)c(C)cc3[nH]2)c1 [Ex. 5.10]
26 | 0.129 µM | 0.013 µM | Cc1ccc(-n2nccn2)c(C(=O)N2CCC[C@@]2(C)c2nc3cc(Br)ccc3[nH]2)c1 [Ex. 5.8]
27 | 0.062 µM | 0.767 µM | C=C1C[C@@H](c2nc3c(OC)ccc(OC)c3[nH]2)N(C(=O)c2cc(C)ccc2-n2nccn2)C1 [Ex. 6.68]
28 | 0.004 µM | 0.044 µM | C=C1C[C@@H](c2nc3c(C)cc(C)cc3[nH]2)N(C(=O)c2cc(C)ccc2-n2nccn2)C1 [Ex. 6.62]
29 | 0.026 µM | 0.048 µM | Cc1ccc(-c2ccccc2C(=O)N2CCC[C@@]2(C)c2nc3c(C)c(C)ccc3[nH]2)cc1 [Ex. 5.120]
30 | 0.521 µM | 0.02 µM | Cc1c(Cl)ccc2[nH]c([C@]3(C)CCCN3C(=O)c3nc(-c4ccc(F)cc4)sc3-c3ccc(F)cc3)nc12 [Ex. 5.227]
31 | 0.009 µM | 0.005 µM | C=C1C[C@@H](c2nc3cc(OC)ccc3[nH]2)N(C(=O)c2nc(N(C)C)sc2-c2ccc(C)c(C)c2)C1 [Ex. 6.27]
32 | 0.081 µM | 0.206 µM | C=C1C[C@@H](c2nc3cc(OC)ccc3[nH]2)N(C(=O)c2nc(C3CC3)sc2-c2ccccc2)C1 [Ex. 6.10]
33 | 0.006 µM | 0.005 µM | COc1cccc(-c2sc(C)nc2C(=O)N2CCC[C@@]2(C)c2nc3c(C)c(C)c(Br)cc3[nH]2)c1 [Ex. 5.275]
34 | 0.005 µM | 0.051 µM | C=C1C[C@@H](c2nc3cc(C)c(C)cc3[nH]2)N(C(=O)c2ccccc2-n2nccn2)C1 [Ex. 6.194]
35 | 0.019 µM | 0.015 µM | COc1cccc(-c2ccc(C)cc2C(=O)N2CCC[C@@]2(C)c2nc3cc(C)c(C)cc3[nH]2)c1 [Ex. 5.93]
36 | 0.533 µM | 0.028 µM | Cc1nc(C(=O)N2CCC[C@@]2(C)c2nc3cc(OC(F)(F)F)ccc3[nH]2)c(-c2cc(F)cc(F)c2)s1 [Ex. 5.246]
37 | 0.458 µM | 0.872 µM | COc1cc2nc([C@]3(C)CCCN3C(=O)c3c(F)cccc3-n3nccn3)[nH]c2cc1OC [Ex. 5.66]
38 | 2.87 µM | 0.02 µM | COc1cc(F)ccc1-c1nc(C(=O)N2CCC[C@@]2(C)c2nc3c(C)c(Cl)ccc3[nH]2)c(-c2ccc(F)cc2)s1 [Ex. 5.260]
39 | 0.101 µM | 0.017 µM | Cc1ccc(-c2sc(C)nc2C(=O)N2CCC[C@@]2(C)c2nc3c(F)c(F)ccc3[nH]2)cc1 [Ex. 5.209]
40 | 0.045 µM | 0.011 µM | C[C@@]1(c2nc3cc(C(F)(F)F)c(Cl)cc3[nH]2)CCCN1C(=O)c1c(F)cccc1-n1nccn1 [Ex. 5.133]

Row | IC50 (human orexin-2 receptor) | IC50 (human orexin-1 receptor) | Compound
41 | 0.0006 µM | 0.0009 µM | C=C1C[C@@H](c2nc3ccc(Cl)c(C)c3[nH]2)N(C(=O)c2nc(C)sc2-c2cccc(C)c2)C1 [Ex. 6.122]
42 | 0.035 µM | 0.022 µM | Cc1ccc(-c2cccc(F)c2)c(C(=O)N2CCC[C@@]2(C)c2nc3cc(C(F)(F)F)c(Cl)cc3[nH]2)c1 [Ex. 5.153]
43 | 0.053 µM | 0.038 µM | COc1cccc(C#Cc2ccccc2C(=O)N2CCC[C@@]2(C)c2nc3c(C)cc(Br)cc3[nH]2)c1 [Ex. 5.249]
44 | 0.012 µM | 0.009 µM | Cc1ccc(-c2cccc(F)c2)c(C(=O)N2CCC[C@@]2(C)c2nc3cc(C)c(C)cc3n2C)c1 [Ex. 7.30]
45 | 0.001 µM | 0.005 µM | C=C1CC(c2nc3cccc(Cl)c3[nH]2)N(C(=O)c2nc(C3CC3)sc2-c2cccc(C)c2)C1 (racemic) [Ex. 6.99]
46 | 0.056 µM | 0.015 µM | C=C1CN(C(=O)c2nc(N(C)C)sc2-c2ccc(C)c(C)c2)C(C)(c2nc3cc(OC)ccc3[nH]2)C1 (stereo not shown) [Ex. 6.144]
47 | 0.53 µM | 0.021 µM | Cc1cccc(-c2nc(C(=O)N3CCC[C@@]3(C)c3nc4c(C)c(Cl)ccc4[nH]3)c(-c3ccc(F)cc3)s2)c1 [Ex. 5.230]
48 | 0.003 µM | 0.012 µM | C=C1C[C@@H](c2nc3cc(C)c(C)cc3[nH]2)N(C(=O)c2ccc(C)cc2-n2nccn2)C1 [Ex. 6.198]
49 | 0.021 µM | 0.029 µM | COc1ccc(-c2cccc(C(F)(F)F)c2)c(C(=O)N2CCC[C@@]2(C)c2nc3ccc(Cl)c(C)c3[nH]2)c1F [Ex. 5.303]
50 | 0.594 µM | 0.035 µM | Cc1ccc(-c2ccccn2)c(C(=O)N2CCC[C@@]2(C)c2nc3cc(OC(F)(F)F)ccc3[nH]2)c1 [Ex. 5.239]
51 | 0.038 µM | 0.057 µM | COc1cccc(-c2ccccc2C(=O)N2CCC[C@@]2(C)c2nc3c(C)c(C)ccc3[nH]2)c1 [Ex. 5.117]
52 | 0.011 µM | 0.004 µM | Cc1ccc(-c2ccccn2)c(C(=O)N2CCC[C@@]2(C)c2nc3c(C)c(Cl)ccc3[nH]2)c1 [Ex. 5.215]
53 | 0.054 µM | 0.261 µM | C=C1C[C@@H](c2nc3cc(C(C)(C)C)ccc3[nH]2)N(C(=O)c2cc(C(F)(F)F)ccc2-n2nccn2)C1 [Ex. 6.168]
54 | 0.0007 µM | 0.016 µM | C=C1C[C@@H](c2nc3cccc(C)c3[nH]2)N(C(=O)c2nc(C)sc2-c2cccc(OC)c2)C1 [Ex. 6.114]
55 | 0.164 µM | 0.057 µM | Cc1ccc(-n2nccn2)c(C(=O)N2CCC[C@@]2(C)c2nc3cc(SC(F)(F)F)ccc3[nH]2)c1 [Ex. 5.30]
56 | 0.012 µM | 0.008 µM | Cc1nc(C(=O)N2CCC[C@@]2(C)c2nc3c(C)c(C)c(Br)cc3[nH]2)c(-c2cccc(Cl)c2Cl)s1 [Ex. 5.272]
57 | 0.034 µM | > 6.97 µM | C=C1C[C@@H](c2nc3ccc(OC)cc3[nH]2)N(C(=O)c2nc(C)ccc2-n2cccn2)C1 [Ex. 6.138]
58 | 0.119 µM | 0.148 µM | COc1cc2nc([C@]3(C)CCCN3C(=O)c3cnc(C)nc3-c3cccc(C)c3)[nH]c2cc1OC [Ex. 5.89]
59 | 0.022 µM | 0.015 µM | Cc1c(Br)cc2[nH]c([C@]3(C)CCCN3C(=O)c3ccccc3-c3ccccc3)nc2c1C [Ex. 5.269]
